Data set [1] in a line: Body temperature recording during cerebral reperfusion (4-VO ischemic animals). In kind it is in vivo, male Wister rats. The note with it: for Temperature recording during cerebral reperfusion: mean ± s.e.m., in °C (unit assumed). The source says: (§1) Four-vessel occlusion (“4-VO”) ischemia. All procedures regarding animals were in compliance with AALAC guidelines set forth in the PHS animal “Guide in the Care and Use of Laboratory Animals”. Animals (male Wister rats, 200-250 gr, Hill Top, Scottsdale) were anesthetized with a mixture of halothane (1%), oxygen, and nitrogen, and surgically prepared for 4-VO according to the method described by Pulsinell, W. A., et al., “Regional Cerebral Blood Flow and Glucose Metabolism Following Transient Forebrain Ischemia,” Ann. Neurol., 11:499-502 (1982), which is hereby incorporated by reference. Surgical procedures included placing reversible clasps around the common carotid arteries and placing a suture around the neck muscles to control collateral blood flow to the brain. Food was withheld overnight, but water was freely available. On the following day, 10 minutes of 4-VO ischemia was induced by tightening the clasps around the common carotid arteries and the suture. In order to minimize variability, the following criteria was set: loss of righting reflex and bilateral pupil dilation during the entire ischemic period, and 20±5 minutes of postischemic coma after 10 minutes of ischemia. Only animals that meet these criteria were included in the study. The body temperature of all animals was kept at 37.5±0.5° C. by a thermocouple-regulated heating lamp during ischemia and reperfusion until the animals regained consciousness and established thermo-homeostasis.
(§2) NAMDA administration. Animals subject to 10 minutes of ischemia randomly were divided into 4 groups. Animals received one of the following triple intraperitoneal injections: i) saline at 0, 0.5, and 2 hours, ii) NAMDA (10 mg/kg) at 0, 0.5, and 2 hours, iii) NAMDA at 1, 1.5, and 3 hours, and iv) NAMDA at 2, 2.5, and 4 hours of cerebral reperfusion. To examine whether NAMDA caused hypothermia, the animals' body temperatures were recorded for up to the first 4 hours of cerebral reperfusion. Sham-operated animals that underwent surgery and carotid manipulation were used as non-ischemic controls.
The animals' body temperature was kept at 37.5±0.5° C. during ischemia and first half hour of cerebral reperfusion when animals were typically stayed in postischemic coma. Temperatures were recorded soon after animals regained consciousness and recorded for up to 4 hours of cerebral reperfusion (Table 1).

Data set [2] concerns NADPH-diaphorase activity in BV-2 cells. The experiment in a line: NADPH-diaphorase histochemical staining in BV-2 cells. In kind it is cell-based, murine. As to conditions: 5 mM. The method, then: NADPH-Diaphorase histochemistry. The histochemical staining was performed according to the method described by Vincent, et al., “Histochemical Mapping of Nitric Oxide Synthase in the Rat Brain,” Neuroscience, 46:755-784 (1992), which is hereby incorporated by reference). Sections containing dorsal hippocampus are washed twice in 0.1 M phosphate buffer (“PB”) and then processed for NADPH-diaphorase histochemistry. To establish a temporal profile of NADPH-diaphorase staining during postischemic period, sections were obtained from animals that were perfuse fixed at 12 hours, 24 hours, 48 hours, 72 hours, and 7 days after ischemia. The sections were then incubated for 1 hour at 37° C. with a solution containing 1 mg/ml of NADPH, 0.25 mg/ml of nitro blue tetrazolium (“NBT”), and 0.3% Triton X-100 in 0.1 M PB. The reaction was terminated by the addition of cold 0.1M PB. […]
(§3) After the treatment, 200 μl aliquots of cell supernatant from each well were mixed with 100 μl of Griess reagent (1 % sulphanilamide, 0.1% naphthylethylenediamine dihydrochloride, 2.5% H3PO4) in 96 well microtiter plates. The mixtures were incubated for 10 minutes to form a chromophore and the absorbance was read at 540 nm using a plate reader. The amount of nitrite accumulation from media was determined against a standard curve generated by a known concentration of NaNO3. […]

Data set [3] has as its system NADPH-diaphorase activity in CA1 hippocampus. In words: NADPH-diaphorase histochemistry in postischemic CA1 hippocampus. In kind it is in vivo, male Wister rats. The note with it: triple i.p. injection 10 mg/kg during reperfusion. The method, then:
as §2
Tissue preparation. Animals were anesthetized with sodium pentobarbital (120 mg/kg) and perfused transcardially with saline containing 0.5% sodium nitrite and 10 U/ml heparin sulfate followed by 4% cold formaldehyde in 0.1 M sodium phosphate buffer (PB, pH 7.2). The brains were further postfixed for 2 hours and stored in a 30% sucrose solution overnight. Fixed brains were sectioned at 30 μm on a sliding microtome. For each animal, the dorsal hippocampus between bregma −2.5 mm and −4.0 mm was sampled. Some sections were […] on slides and stained with cresyl violet to measure neuronal density. Others were used for free floating NADPH-diaphorase histochemistry.
NADPH-Diaphorase histochemistry. […]

For data set [4], the system named is CA1 hippocampal neurons. In words: Four-vessel occlusion (4-VO) ischemia, CA1 neuronal density measurement. In kind it is in vivo, male Wister rats.
Description: as §1, §2
Tissue preparation. […] Some sections were […] on slides and stained with cresyl violet to measure neuronal density. […]
Cell density measurement. […] Neurons were counted in the frame if part or all of the nucleus was within the frame and not in contact with the left or bottom border of the frame. […] The number of neurons counted were divided by the total volume sampled to generate the density of neurons in CA1. Mean neuron density was calculated for the left and right hippocampus (side) and for the anterior and posterior regions for each animal. […]

Data set [5] concerns BV-2 microglia cells. The experiment in a line: Nitrite measurement (Griess reaction) in BV-2 microglia cells. The note with it: 6 hours, 0.05-5 mM. In kind it is cell-based, murine. As for the experimental part: Nitrite measurement on microylial cell. To measure nitrite level, a NO oxidative metabolite, murine BV-2 cells, were used. […] The cells were grown and maintained in Dulbeccos Modified Eagle medium (“DMEM”, Gibco, Gaithersburg, Md.) supplemented with 10% fetal calf serum and penicillin/streptomycine at 37° C. in a humidified incubator under 5% CO2. BV-2 microglia cells were cultured and grown in 24 well culture plates and treated for 6 hours with 0. 0.05, 0.5, 2, or 5 mM or NAMDA either in the presence or absence of lipopolysaccharide (LPS, 0.2 μg/ml).
as §3, with “[…]. After removal of the supernatant for the nitrite assay, cells were immediately washed with 0.1M PB, fixed with 4% formaldehyde for 30 minutes, and washed with 0.1M PB for 5 minutes. NADPH-diaphorase histochemical staining was performed as described above.” for “NaNO3.”

The subject of data set [6] is BV-2 cells. In words: Cell number count by tryphan exclusion in BV-2 cells. The format is cell-based, murine. As to conditions: with or without LPS; end of 6 hours treatment; up to 5 mM.
The subject of data set [7] is CA1 hippocampal neurons. As to conditions: Cho et al. 1997, cited from earlier work.
The conditions of data set [8]: background statement; cited from earlier work.

“Also recorded” adds a separate entry of the source. Read-outs that look alike come from different tables or passages of the source.

In the case of `COc1cc(CCNC(C)=O)ccc1O` [NAMDA, N-acetyl-3-O-methyldopamine], in data set [1] (10 mg/kg triple i.p., any time point up to 4 hours of reperfusion, ANOVA, Newman-Keuls), the “Effect on body temperature versus saline-treated ischemic group” value was “no differences in body temperatures”. Further, the “Temperature recording during cerebral reperfusion” value in data set [1] (NC-111 (0, 0.5, 2 h), n = 9, postischemic time 1 hour) is recorded as 37.6 ± 0.2; in data set [1] (NC-111 (0, 0.5, 2 h), n = 9, postischemic time 1.5 hour) it was 37.3 ± 0.1; in data set [1] (NC-111 (0, 0.5, 2 h), n = 9, postischemic time 2 hour) it was 37.3 ± 0.1; in data set [1] (NC-111 (0, 0.5, 2 h), n = 9, postischemic time 3 hour), 37.5 ± 0.2; in data set [1] (NC-111 (0, 0.5, 2 h), n = 9, postischemic time 4 hour), 37.2 ± 0.1; in data set [1] (NC-111 (1 h) group (injections at 1, 1.5, 3 h), n = 7, postischemic time 0.5 hour) it was 37.9 ± 0.2. The “Temperature recording during cerebral reperfusion” value in data set [1] (NC-111 (1 h) group, n = 7, postischemic time 1 hour) is listed as 36.9 ± 0.1; in data set [1] (NC-111 (1 h) group, n = 7, postischemic time 1.5 hour), 37.0 ± 0.1; in data set [1] (NC-111 (1 h) group, n = 7, postischemic time 2 hour), 37.4 ± 0.1; in data set [1] (NC-111 (1 h) group, n = 7, postischemic time 3 hour), 37.5 ± 0.2; in data set [1] (NC-111 (1 h) group, n = 7, postischemic time 4 hour), 37.5 ± 0.3; in data set [1] (NC-111 (2 hr) group (injections at 2, 2.5, 4 h), n = 6, postischemic time 0.5 hour), 38.3 ± 0.2. Besides, the “Temperature recording during cerebral reperfusion” value came to 36.8 ± 0.3 in data set [1] (NC-111 (2 hr) group, n = 6, postischemic time 1 hour); 37.2 ± 0.4 in data set [1] (NC-111 (2 hr) group, n = 6, postischemic time 1.5 hour); 37.4 ± 0.2 in data set [1] (NC-111 (2 hr) group, n = 6, postischemic time 2 hour); 37.3 ± 0.2 in data set [1] (NC-111 (2 hr) group, n = 6, postischemic time 3 hour); 37.9 ± 0.3 in data set [1] (NC-111 (2 hr) group, n = 6, postischemic time 4 hour); 37.7 ± 0.2 in data set [1] (NC-111 (injections at 0, 0.5, 2 h of reperfusion), n = 9, postischemic time 0.5 hour). Further, in data set [2] (absence of LPS), the “Baseline NADPH-diaphorase staining intensity” value is on record as “not affected”. In addition, the “LPS-induced NADPH-diaphorase activity (staining)” value in data set [2] (presence of LPS) is reported as “attenuated”. For the same compound, the “Ischemia-induced NADPH-diaphorase staining in CA1” value in data set [3] (24 hours postischemic) was “markedly reduced”; in data set [3] (48 hours after ischemia) it was “attenuation of the staining was persisted”. In addition, in data set [4] (10 min 4-VO ischemia, 10 mg/kg i.p. at 0, 0.5, 2 h (immediately after reperfusion), measured one week later), the “CA1 neuronal density / protection of CA1 neurons (of non-ischemic control)” value is 45%. For the same compound, in data set [4] (10 min 4-VO ischemia, NAMDA treatment versus saline, one week later, Fisher's PLSD p<0.0001), the “Protection of neurons in CA1 hippocampus” value is on record as “significantly protected neurons in CA1 hippocampus”. In addition, the “Neuron density in CA1 at 24 hours postischemic” value in data set [4] (10 min ischemia, NAMDA-ischemic n=3, 24 hours postischemic) is 18.3±2.2 neurons/10^5 μm^3. Further, the “Protection of CA1 neurons with delayed administration” value in data set [4] (administration delayed up to 2 hours after ischemia, one week later) was “protect CA1 neurons despite delaying the treatment up to 2 hours; also recorded: significant protection of CA1 neurons”. For the same compound, the “Nitrite accumulation in cell supernatant” value is given as “did not alter nitrite accumulation” in data set [5] (absence of LPS) and “significantly reduced nitrite accumulation in a dose-dependent manner” in data set [5] (presence of LPS 0.2 μg/ml, ANOVA p<0.001). In data set [6], the “Total number of cells (cell viability)” value is on record as “did not affect the total number of cells”.
Take `COc1ccc2[nH]cc(CCNC(C)=O)c2c1` [melatonin, Melatonin]: the “Protection of CA1 neurons” value in data set [7] (administration starting immediately after / during reperfusion, 10 min transient forebrain ischemia) is listed as “significantly protect CA1 neurons; also recorded: protects the CA1 hippocampal neurons”. The “Protection of CA1 neurons with delayed administration” value in data set [7] (delay of one hour) is listed as “did not offer significant protection”. Further, the “Protection of the neurons with delayed administration” value in data set [7] (delay of one to two hours in administration) is “significantly decreased protection of the neurons”. The “Solubility in aqueous media” value in data set [8] is “insoluble in aqueous media”.
